# ± gives the expanded uncertainty stated by the source.
# Legend:
# [1] = xn = mol fraction of the nth substance listed; details: 101 kPa, Liquid; for viscosity: Capillary tube (Ostwald / Ubbelohde) method; for mass density: Vibrating tube method
# [2] = excess molar enthalpy (molar enthalpy of mixing); xn = mol fraction of the nth substance listed; details: 303.15 K, 101 kPa, Liquid, Calvet calorimetry
smiles,measurement,setting,value
CCOC(=O)OCC [diethyl carbonate] + CCCCCCCCO,viscosity,"[1]; 288.15 K, x1 = 0.05879",8.723 ± 0.081 mPa·s
same,viscosity,"[1]; 288.15 K, x1 = 0.09178",7.678 ± 0.071 mPa·s
same,viscosity,"[1]; 288.15 K, x1 = 0.184",5.521 ± 0.052 mPa·s
same,viscosity,"[1]; 288.15 K, x1 = 0.2839",3.992 ± 0.038 mPa·s
same,viscosity,"[1]; 288.15 K, x1 = 0.4001",2.876 ± 0.028 mPa·s
same,viscosity,"[1]; 288.15 K, x1 = 0.5109",2.157 ± 0.021 mPa·s
same,viscosity,"[1]; 288.15 K, x1 = 0.598",1.773 ± 0.017 mPa·s
same,viscosity,"[1]; 288.15 K, x1 = 0.6927",1.441 ± 0.014 mPa·s
same,viscosity,"[1]; 288.15 K, x1 = 0.8073",1.157 ± 0.011 mPa·s
same,viscosity,"[1]; 288.15 K, x1 = 0.9275",0.953 ± 0.009 mPa·s
same,viscosity,"[1]; 288.15 K, x1 = 0.9531",0.921 ± 0.009 mPa·s
same,mass density,"[1]; 288.15 K, x1 = 0.05879",834.94 ± 0.11 kg/m3
same,mass density,"[1]; 288.15 K, x1 = 0.09178",838.6 ± 0.11 kg/m3
same,mass density,"[1]; 288.15 K, x1 = 0.184",849.27 ± 0.11 kg/m3
same,mass density,"[1]; 288.15 K, x1 = 0.2839",861.63 ± 0.1 kg/m3
same,mass density,"[1]; 288.15 K, x1 = 0.4001",877.04 ± 0.1 kg/m3
same,mass density,"[1]; 288.15 K, x1 = 0.5109",892.89 ± 0.09 kg/m3
same,mass density,"[1]; 288.15 K, x1 = 0.598",906.21 ± 0.09 kg/m3
same,mass density,"[1]; 288.15 K, x1 = 0.6927",921.66 ± 0.09 kg/m3
same,mass density,"[1]; 288.15 K, x1 = 0.8073",941.89 ± 0.08 kg/m3
same,mass density,"[1]; 288.15 K, x1 = 0.9275",965.14 ± 0.08 kg/m3
same,mass density,"[1]; 288.15 K, x1 = 0.9531",970.42 ± 0.08 kg/m3
same,viscosity,"[1]; 293.15 K, x1 = 0.05259",7.441 ± 0.069 mPa·s
same,viscosity,"[1]; 293.15 K, x1 = 0.1047",6.062 ± 0.057 mPa·s
same,viscosity,"[1]; 293.15 K, x1 = 0.1967",4.538 ± 0.043 mPa·s
same,viscosity,"[1]; 293.15 K, x1 = 0.2955",3.308 ± 0.032 mPa·s
same,viscosity,"[1]; 293.15 K, x1 = 0.3964",2.544 ± 0.024 mPa·s
same,viscosity,"[1]; 293.15 K, x1 = 0.5031",1.951 ± 0.019 mPa·s
same,viscosity,"[1]; 293.15 K, x1 = 0.604",1.573 ± 0.015 mPa·s
same,viscosity,"[1]; 293.15 K, x1 = 0.6995",1.285 ± 0.013 mPa·s
same,viscosity,"[1]; 293.15 K, x1 = 0.8175",1.039 ± 0.01 mPa·s
same,viscosity,"[1]; 293.15 K, x1 = 0.9124",0.9 ± 0.009 mPa·s
same,viscosity,"[1]; 293.15 K, x1 = 0.9531",0.853 ± 0.008 mPa·s
same,mass density,"[1]; 293.15 K, x1 = 0.05259",830.75 ± 0.11 kg/m3
same,mass density,"[1]; 293.15 K, x1 = 0.1047",836.45 ± 0.11 kg/m3
same,mass density,"[1]; 293.15 K, x1 = 0.1967",847.03 ± 0.11 kg/m3
same,mass density,"[1]; 293.15 K, x1 = 0.2955",859.15 ± 0.1 kg/m3
same,mass density,"[1]; 293.15 K, x1 = 0.3964",872.38 ± 0.1 kg/m3
same,mass density,"[1]; 293.15 K, x1 = 0.5031",887.37 ± 0.09 kg/m3
same,mass density,"[1]; 293.15 K, x1 = 0.604",902.57 ± 0.09 kg/m3
same,mass density,"[1]; 293.15 K, x1 = 0.6995",918.01 ± 0.09 kg/m3
same,mass density,"[1]; 293.15 K, x1 = 0.8175",938.67 ± 0.08 kg/m3
same,mass density,"[1]; 293.15 K, x1 = 0.9124",956.76 ± 0.08 kg/m3
same,mass density,"[1]; 293.15 K, x1 = 0.9531",964.98 ± 0.08 kg/m3
same,viscosity,"[1]; 303.15 K, x1 = 0.05353",5.282 ± 0.05 mPa·s
same,viscosity,"[1]; 303.15 K, x1 = 0.1003",4.522 ± 0.043 mPa·s
same,viscosity,"[1]; 303.15 K, x1 = 0.1902",3.432 ± 0.033 mPa·s
same,viscosity,"[1]; 303.15 K, x1 = 0.3002",2.536 ± 0.024 mPa·s
same,viscosity,"[1]; 303.15 K, x1 = 0.4112",1.928 ± 0.019 mPa·s
same,viscosity,"[1]; 303.15 K, x1 = 0.5038",1.584 ± 0.015 mPa·s
same,viscosity,"[1]; 303.15 K, x1 = 0.5934",1.32 ± 0.013 mPa·s
same,viscosity,"[1]; 303.15 K, x1 = 0.6981",1.075 ± 0.011 mPa·s
same,viscosity,"[1]; 303.15 K, x1 = 0.8151",0.884 ± 0.009 mPa·s
same,viscosity,"[1]; 303.15 K, x1 = 0.9138",0.773 ± 0.008 mPa·s
same,viscosity,"[1]; 303.15 K, x1 = 0.9548",0.74 ± 0.007 mPa·s
same,mass density,"[1]; 303.15 K, x1 = 0.05353",823.7 ± 0.12 kg/m3
same,mass density,"[1]; 303.15 K, x1 = 0.1003",828.65 ± 0.11 kg/m3
same,mass density,"[1]; 303.15 K, x1 = 0.1902",838.63 ± 0.11 kg/m3
same,mass density,"[1]; 303.15 K, x1 = 0.3002",851.69 ± 0.1 kg/m3
same,mass density,"[1]; 303.15 K, x1 = 0.4112",865.89 ± 0.1 kg/m3
same,mass density,"[1]; 303.15 K, x1 = 0.5038",878.58 ± 0.1 kg/m3
same,mass density,"[1]; 303.15 K, x1 = 0.5934",891.62 ± 0.09 kg/m3
same,mass density,"[1]; 303.15 K, x1 = 0.6981",907.98 ± 0.09 kg/m3
same,mass density,"[1]; 303.15 K, x1 = 0.8151",927.85 ± 0.08 kg/m3
same,mass density,"[1]; 303.15 K, x1 = 0.9138",946.1 ± 0.08 kg/m3
same,mass density,"[1]; 303.15 K, x1 = 0.9548",954.16 ± 0.08 kg/m3
same,viscosity,"[1]; 313.15 K, x1 = 0.05666",3.842 ± 0.037 mPa·s
same,viscosity,"[1]; 313.15 K, x1 = 0.1109",3.267 ± 0.031 mPa·s
same,viscosity,"[1]; 313.15 K, x1 = 0.1956",2.59 ± 0.025 mPa·s
same,viscosity,"[1]; 313.15 K, x1 = 0.2893",2.054 ± 0.02 mPa·s
same,viscosity,"[1]; 313.15 K, x1 = 0.4005",1.585 ± 0.015 mPa·s
same,viscosity,"[1]; 313.15 K, x1 = 0.5067",1.273 ± 0.012 mPa·s
same,viscosity,"[1]; 313.15 K, x1 = 0.6044",1.059 ± 0.01 mPa·s
same,viscosity,"[1]; 313.15 K, x1 = 0.7038",0.893 ± 0.009 mPa·s
same,viscosity,"[1]; 313.15 K, x1 = 0.8041",0.766 ± 0.008 mPa·s
same,viscosity,"[1]; 313.15 K, x1 = 0.9092",0.672 ± 0.007 mPa·s
same,viscosity,"[1]; 313.15 K, x1 = 0.954",0.643 ± 0.006 mPa·s
same,mass density,"[1]; 313.15 K, x1 = 0.05666",816.83 ± 0.12 kg/m3
same,mass density,"[1]; 313.15 K, x1 = 0.1109",822.42 ± 0.12 kg/m3
same,mass density,"[1]; 313.15 K, x1 = 0.1956",831.59 ± 0.11 kg/m3
same,mass density,"[1]; 313.15 K, x1 = 0.2893",842.35 ± 0.11 kg/m3
same,mass density,"[1]; 313.15 K, x1 = 0.4005",856.05 ± 0.1 kg/m3
same,mass density,"[1]; 313.15 K, x1 = 0.5067",870.12 ± 0.1 kg/m3
same,mass density,"[1]; 313.15 K, x1 = 0.6044",884.01 ± 0.09 kg/m3
same,mass density,"[1]; 313.15 K, x1 = 0.7038",899.18 ± 0.09 kg/m3
same,mass density,"[1]; 313.15 K, x1 = 0.8041",915.66 ± 0.09 kg/m3
same,mass density,"[1]; 313.15 K, x1 = 0.9092",934.43 ± 0.08 kg/m3
same,mass density,"[1]; 313.15 K, x1 = 0.954",942.96 ± 0.08 kg/m3
same,excess molar enthalpy,[2]; x1 = 0.09134,0.176 ± 0.00382 kcal/mol
same,excess molar enthalpy,[2]; x1 = 0.1276,0.236 ± 0.00502 kcal/mol
same,excess molar enthalpy,[2]; x1 = 0.1764,0.31 ± 0.00669 kcal/mol
same,excess molar enthalpy,[2]; x1 = 0.2484,0.394 ± 0.00837 kcal/mol
same,excess molar enthalpy,[2]; x1 = 0.3155,0.46 ± 0.0098 kcal/mol
same,excess molar enthalpy,[2]; x1 = 0.374,0.5 ± 0.0108 kcal/mol
same,excess molar enthalpy,[2]; x1 = 0.4304,0.528 ± 0.0112 kcal/mol
same,excess molar enthalpy,[2]; x1 = 0.491,0.544 ± 0.0117 kcal/mol
same,excess molar enthalpy,[2]; x1 = 0.5699,0.542 ± 0.0115 kcal/mol
same,excess molar enthalpy,[2]; x1 = 0.6268,0.529 ± 0.0112 kcal/mol
same,excess molar enthalpy,[2]; x1 = 0.6895,0.499 ± 0.0108 kcal/mol
same,excess molar enthalpy,[2]; x1 = 0.7492,0.455 ± 0.0098 kcal/mol
same,excess molar enthalpy,[2]; x1 = 0.8111,0.387 ± 0.00837 kcal/mol
same,excess molar enthalpy,[2]; x1 = 0.8705,0.298 ± 0.00645 kcal/mol
same,excess molar enthalpy,[2]; x1 = 0.9357,0.167 ± 0.00359 kcal/mol

# — the NIST ThermoML archive (doi:10.1021/je1013476)
